Series [1] has as its system IL-1β. The series is described as follows: Bovine whole blood assay, IL-1β. The series is classed as cell-based. The following applies: drug concentration giving overstimulation of IL-1β over LPS (cellular toxicity signal). The procedure: (protected from light) for 30 minutes.
Series [2] concerns P. multocida 46572. The series is described as follows: In vivo mouse lung infection challenge model (murine efficacy model). The following applies: P. multocida infection in mice.
For series [3], the system named is P. multocida. The series can be described thus: Murine P. multocida intranasal challenge study with lung tissue RNA sequence analysis. The series is classed as in vivo, mouse. The following applies: 32 mg/kg subcutaneous 18 hours after challenge (T03); placebo 0%. The procedure:
In one murine P. multocida intranasal challenge study, mice were administered tulathromycin (16 mg/kg; T02), M9 (32 mg/kg; T03), or ceftiofur (9 mg/kg; T04) by subcutaneous injection 18 hours after bacterial challenge (5×10^3 CFU/mouse) for lung tissue RNA sequence analysis. Survival at Day 7 was about 80%, 50%, and 90% for T02, T03, and T04, respectively, compared to placebo at 0%. Differential gene expression from total lung tissue RNA sequence analysis indicated at least 226 unique genes were up or down regulated (with significance) for T03. Output from ingenuity pathway analysis of these unique genes predicted major upstream regulators of the involved pathways. Data was analyzed based on the number of genes being modulated in the same direction that were associated with a given upstream regulator. An activation z-score of 2 or greater is considered significant and the direction change is indicated by + (activated) or − (inhibited). The top 5 pathways included: IL-9 signaling, glucocorticoid receptor signaling, prolactin signaling, JAK STAT signaling, and IL-17 signaling. The top 6 upstream regulators (activation z-score) included: lipopolysaccharide (−6.725), TNF (−4.669), IFNγ (−5.759), IL-1β (−5.947), STAT1 (−2.787), and poly rI:rC-RNA (−5.289). Even though this study was run in the murine model, the top upstream regulators identified as being modulated by M9 include an almost ubiquitous overlap with the pathways identified in the natural disease study as being key mediators in BRD, and therefore is modulating highly relevant pathways in BRD pathobiology.

Series [4] deals with bovine respiratory disease (BRD). The series is described as follows: Natural bovine respiratory disease study. Type of series: in vivo, beef calves.
Protocol: The primary clinical endpoint for efficacy was treatment failure/success over a 14-day observation period. Clinically normal beef calves (150-200 kg) at moderate risk for BRD were dosed on arrival to the feedlot. Animals (N=114/group) received saline (T01), 5 mg/kg M9 (T02) or 10 mg/kg M9 (T03); or Zactran (T04). […] Bacterial isolates were collected at necropsy and MICs were evaluated (Table 4).
In series [5] the test system is M. haemolytica (strain: OSU-012103-BHI). The series is described as follows: Bovine M. haemolytica intratracheal lung challenge model. Type of series: in vivo.
Series [6] in a line: Separate study of M9 versus saline control (lung lesions, mortality). Type of series: in vivo. The settings on record: 10 mg/kg.
Series [7] concerns the target T1, LCN2 (Bos taurus, UniProt A0AAA9TIZ6).
T1 sequence (A0AAA9TIZ6 24-200): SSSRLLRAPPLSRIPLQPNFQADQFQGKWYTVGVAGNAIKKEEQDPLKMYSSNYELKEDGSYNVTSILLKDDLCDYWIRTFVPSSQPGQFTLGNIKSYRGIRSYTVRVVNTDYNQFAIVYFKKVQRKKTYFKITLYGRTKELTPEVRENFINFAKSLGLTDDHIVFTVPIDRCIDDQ
The series can be described thus: Surface plasmon resonance (SPR) drug/target binding, LCN2. The settings on record: read-out: Interaction KD. Details: species or system bovine. The procedure:
(§1) To further characterize the direct activity of the compounds of the invention, experiments to identify the drug's direct binding host partners(s) were performed with the aim of identifying the potential biological targets. Bovine primary cells (peripheral blood mononuclear cells [PBMCs] and polymorphonuclear cells [PMN/neutrophils]) and tissue (trachea, lung) protein homogenates were mixed with M9 and the macrolide, gamithromicin as a comparator. Tissue interactions were allowed to form using a heterogeneous assembly method (nematic protein organization technique, NPOT; Inoviem Scientific); and traditional western blots to identify native-structure proteins bound to the compound. Mass spectrometry analysis identified eight proteins involved in the interaction with M9 as compared to gamithromycin. The antibacterial macrolide gamithromycin was used as a comparator to differentiate specific binding to M9. These proteins were considered to be either direct binding partners of the drug or closely involved in the drug:target interaction (Table 6).
(§2) In order to add further clarity to binding partner identification, surface plasma resonance (SPR) technology was used. […]
(§3) KD is the equilibrium dissociation constant that was used to present the drug/target affinity. The identified targets associated with drug were measured by surface plasmon resonance (SPR) to define the KD.
(In general: In SPR one partner is held on a chip, and binding of the other changes the refractive index at the surface.)

Series [8] concerns the target SLAMF9 (Bos taurus, UniProt E1BNF9). The series can be described thus: Surface plasmon resonance (SPR) drug/target binding, SLAMF9. Details: species or system bovine. The settings on record: read-out: Interaction KD. As to the method: as §1, §2, §3
The target in series [9] is NLRX1 (Bos taurus, UniProt A7MB19). The series is described as follows: Drug binding partner identification (NPOT/SPR), NLRX1. Details: species or system bovine. The settings on record: tissue PBMCs. The procedure:
as §1, §2, §3

In series [10] the target is LPO (Bos taurus, UniProt P80025). The series is described as follows: Drug binding partner identification (NPOT/SPR), LPO. Also on record: species or system bovine. The following applies: tissue Trachea, PBMCs, PMNs. As to the method:
as §1, §2, §3

Series [11] concerns the target T2, TLR4 (Bos taurus, UniProt Q9GL65).
T2 sequence (Q9GL65 24-841): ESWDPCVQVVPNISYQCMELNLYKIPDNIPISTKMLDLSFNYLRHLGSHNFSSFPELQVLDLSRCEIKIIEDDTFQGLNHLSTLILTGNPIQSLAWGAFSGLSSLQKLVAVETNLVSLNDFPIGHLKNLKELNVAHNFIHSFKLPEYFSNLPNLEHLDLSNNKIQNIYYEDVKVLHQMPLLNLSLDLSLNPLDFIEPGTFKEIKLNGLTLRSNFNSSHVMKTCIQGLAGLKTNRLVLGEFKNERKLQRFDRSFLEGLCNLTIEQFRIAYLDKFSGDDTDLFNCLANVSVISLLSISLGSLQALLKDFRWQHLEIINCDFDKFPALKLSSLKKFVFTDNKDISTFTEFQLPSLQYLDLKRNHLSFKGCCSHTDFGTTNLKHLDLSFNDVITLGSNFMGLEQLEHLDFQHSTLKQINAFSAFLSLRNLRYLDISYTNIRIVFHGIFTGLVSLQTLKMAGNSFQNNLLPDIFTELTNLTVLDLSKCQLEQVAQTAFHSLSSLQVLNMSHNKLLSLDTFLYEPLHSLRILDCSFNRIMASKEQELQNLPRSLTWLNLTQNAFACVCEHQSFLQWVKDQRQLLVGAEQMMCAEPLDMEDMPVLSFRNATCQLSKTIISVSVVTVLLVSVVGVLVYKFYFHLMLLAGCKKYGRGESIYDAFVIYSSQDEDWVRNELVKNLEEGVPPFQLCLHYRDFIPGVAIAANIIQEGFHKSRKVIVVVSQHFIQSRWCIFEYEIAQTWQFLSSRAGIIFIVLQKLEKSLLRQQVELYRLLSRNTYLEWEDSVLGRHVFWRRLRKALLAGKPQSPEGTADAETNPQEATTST
The series can be described thus: Drug binding partner identification (NPOT/SPR), TLR4. Also on record: species or system bovine. The settings on record: tissue PBMCs, Trachea. As to the method:
as §1, §2, §3

The nature of series [12]: Separate PK study, plasma concentration. The settings on record: following a 10 mg/kg dose.

“Also recorded” adds a separate entry of the source. Read-outs that look alike come from different tables or passages of the source.

Chain of SLAMF9 (E1BNF9 1-289): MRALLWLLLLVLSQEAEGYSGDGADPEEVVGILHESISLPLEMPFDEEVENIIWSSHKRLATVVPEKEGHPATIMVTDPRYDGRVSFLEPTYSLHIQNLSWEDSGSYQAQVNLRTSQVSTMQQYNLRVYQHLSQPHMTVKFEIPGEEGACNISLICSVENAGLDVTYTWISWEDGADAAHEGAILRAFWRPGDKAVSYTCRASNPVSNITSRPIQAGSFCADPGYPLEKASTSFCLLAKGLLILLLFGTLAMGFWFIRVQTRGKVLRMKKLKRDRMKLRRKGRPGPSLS
Chain of NLRX1 (A7MB19 1-973): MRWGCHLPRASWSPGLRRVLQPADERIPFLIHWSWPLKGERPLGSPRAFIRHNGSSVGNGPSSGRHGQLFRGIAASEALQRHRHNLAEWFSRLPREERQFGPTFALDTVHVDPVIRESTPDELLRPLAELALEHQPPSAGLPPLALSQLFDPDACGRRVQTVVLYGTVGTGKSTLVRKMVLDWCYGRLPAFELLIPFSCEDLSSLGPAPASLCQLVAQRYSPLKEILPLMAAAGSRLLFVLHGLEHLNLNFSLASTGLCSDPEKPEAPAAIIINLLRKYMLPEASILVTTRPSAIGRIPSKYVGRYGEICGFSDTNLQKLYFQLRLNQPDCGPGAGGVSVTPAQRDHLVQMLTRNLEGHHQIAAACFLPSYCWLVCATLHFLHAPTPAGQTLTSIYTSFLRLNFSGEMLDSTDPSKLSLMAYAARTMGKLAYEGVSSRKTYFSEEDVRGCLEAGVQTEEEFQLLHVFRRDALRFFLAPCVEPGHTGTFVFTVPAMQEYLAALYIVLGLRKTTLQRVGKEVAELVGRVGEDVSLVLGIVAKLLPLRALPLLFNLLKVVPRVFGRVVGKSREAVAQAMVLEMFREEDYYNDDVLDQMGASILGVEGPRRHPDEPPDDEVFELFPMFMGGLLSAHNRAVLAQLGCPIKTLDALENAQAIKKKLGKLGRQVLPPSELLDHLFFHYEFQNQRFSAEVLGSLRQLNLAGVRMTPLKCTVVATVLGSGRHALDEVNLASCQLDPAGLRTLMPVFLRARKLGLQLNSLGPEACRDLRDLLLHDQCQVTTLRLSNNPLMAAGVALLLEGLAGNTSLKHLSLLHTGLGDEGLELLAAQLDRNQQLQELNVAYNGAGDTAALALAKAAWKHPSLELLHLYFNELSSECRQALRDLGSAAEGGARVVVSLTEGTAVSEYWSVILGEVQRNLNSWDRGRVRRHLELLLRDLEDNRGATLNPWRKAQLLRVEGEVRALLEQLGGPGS

Regarding `CCCNC[C@]1(O)[C@H](C)O[C@@H](O[C@H]2[C@H](C)[C@@H](O[C@@H]3O[C@H](C)C[C@H](NC)[C@H]3O)[C@](C)(O)C[C@@H](C)CN[C@H](C)[C@@H](O)[C@](C)(O)[C@@H](CC)OC(=O)[C@@H]2C)C[C@@]1(C)OC` [Example M9, (2R,3S,4R,5R,8R,10R,11R,12S,13S,14R)-2-ethyl-3,4,10-trihydroxy-13-(((2R,4R,5S,6S)-5-hydroxy-4-methoxy-4,6-dimethyl-5-((propylamino)methyl)-tetrahydro-2H-pyran-2-yl)oxy)-11-(((2S,3R,4S,6R)-3-hydroxy-6-methyl-4-(methylamino)tetrahydro-2H-pyran-2-yl)oxy)-3,5,8,10,12,14-hexamethyl-1-oxa-6-azacyclopentadecan-15-one], the “IL-Iβ OS of LPS” value in series [1] is above 500 µM. Further, the “clinical efficacy, in words” value in [2] is given as “clinically efficacious”. Also, in series [3], the “Survival at Day 7” value was around 50%. Moreover, in series [4] (10 mg/kg (T03), dosed on arrival, 14-day observation, saline 43%), the “Percent failure (treatment failure)” value is recorded as 8.8%. Also, the “efficacy versus untreated control groups, in words” value in series [4] (reduction of lung lesions and treatment failure) is listed as “statistical superiority”. The Mortality in [5] (T02: 10 mg/kg subcutaneous Day −1, M. haemolytica challenge Day 0, saline 4/6) is 1/6; in [6] (saline control 38.9%, p=0.025), 13%. Moreover, the “IL-6 levels, in words” value in series [5] (bovine M. haemolytica challenge, blood biomarker) is “significantly reduced”. Moreover, the “CD163 expression, in words” value in series [5] (cattle, monocytes/macrophages in whole blood, flow cytometry) is given as “suppressed; also recorded: mitigates the pathologic increase”. Also, the lung lesions in series [6] (saline control 31%, p=0.023) is reported as 20%. Besides, the Kd in series [7] (pH 5.5, SPR) came out at 0.435 mM; in series [7] (pH 6.5, SPR), 4.21 mM; in series [8] (pH 5.5, SPR), 6.33 mM; in [8] (pH 6.5, SPR), 2.15 mM. For the same compound, the Interaction result in series [9], in series [10] and in series [11] was “Indirect” throughout. Further, the maximum plasma concentration in series [12] amounted to 5 µg/mL.

The Kd is the equilibrium constant for the complex coming apart.

For the origin of these results see patent publication US20230129438A1, “IMMUNOMODULATING IMINE-OXAZOLINE AZALIDES” (Zoetis Services LLC, priority 2020, published 2023).
